Where “and” joins values, the source holds several entries; their conditions need not be identical. Equal entries are not always repeated.
Assays:
Type in all cases: cell-based, human
[1] = test system: TSLP production in NHBE cells; experiment: TSLP HTRF assay (TSLP production in poly I:C / IL-4 stimulated NHBE cells); details: 4 μM; NHBE donor #1; average ± SD
Protocol: For dose response curves determinations, stocks of test compounds at a concentration of 1.33x10^-3 M in DMSO were sequentially diluted at 1:4 dilution steps before further 1/50 dilution in BEBM medium containing 1x ITS and 0.1% BSA. For the highest 4 μM concentration test compounds were resuspended in DMSO at a concentration of 2.5x10^-3 M and diluted 1/25 in BEBM medium containing 1x ITS and 0.1% BSA before adding 1 μl to the wells containing the cells.
All subsequent steps were automated using a Sciclone® G3 workstation (Perkin Elmer) with a Twister™ II robot (Perkin Elmer). […] 1 μl of test compound solution prepared at 25x concentration was added to the wells containing NHBE cells. The plates were then incubated during 90 minutes at 37°C, 5% CO2, 90% humidity before adding poly I:C (Invivogen HMW Tirl-pic-5) and human IL-4 (Peprotech 200–04) stimulus in 4 μl of BEBM medium containing 1x ITS, 0.1% BSA and 0.1% DMSO using a Multidrop™. […] Cells were then incubated for 24h in the presence of test compounds and stimulus at 37°C, 5% CO2 and 90% humidity conditions. After the 24h incubation period the plates were transferred to a CyBi®-Well platform (CyBio AG) to collect 10 μl of the supernatants which were transferred to a new plate. TSLP levels in the supernatant were determined using a homogeneous Time-Resolved Fluorescence (HTRF) assay custom developed by Cisbio. The assay was based in the use of a donor dye (europium cryptate) coupled to a monoclonal anti-TSLP antibody and an acceptor dye (d2) coupled to a second polyclonal anti-TSLP antibody. […] 10 μl of the resulting solution was then used to determine TSLP levels as described above.
The standard curve was built with eight points prepared in ITS/BSA in BEBM medium without supplements, starting at 700 pg/ml and diluted 1:2, with medium alone being zero TSLP. Fitting model corresponded to equation 100 of Excel fit software. Data from the primary phenotypic screen was visualized using Vortex (Dotmatics). […] For compound selection the maximum inhibition of the two individual duplicate values was taken into account. Dose response confirmation was performed at single point in the 2 donors tested. 9 point curves were run starting at 4 μM concentration by doing serial 1:4 dilutions in cells derived from both donors.

[2] = test system: TSLP production in NHBE cells; experiment: as above; details: individual values
[3] = test system: TSLP mRNA levels in NHBE cells; experiment: TSLP mRNA real-time PCR (qPCR) in NHBE cells; design: TSLP mRNA upregulation (% versus control) / % Inhibition of mRNA: dose or concentration left out as unconfirmed

## CC(C)N(C(=O)CN1N=C(c2ccccc2)Cn2c(cc3ccccc32)C1=O)C(C)C [compound 1]
[1]
  TSLP protein upregulation (% versus control at 4 µM): 170 ± 62%
[2]
  TSLP protein upregulation (% versus control at 4 µM): 138.531% and 75.145% and 206.844% and 140.02% and 231.867% and 228.515%
[3]; 4 μM, NHBE donor #1, average ± SD
  TSLP mRNA upregulation (% versus control at 4 μM): 452 ± 103%
[3]; individual values
  TSLP mRNA upregulation (% versus control): 525.82% and 378.87%
